Results from patent US11129871B1, “Compositions and methods for treating and preventing endoplasmic reticulum (ER) stress-mediated kidney diseases” (Washington University, priority 2018, dated 2021).

Columns and labels:
[1] = test system: 293T cells stably expressing SERCaMP; test: SERCaMP secretion (GLuc luciferase) assay of ER calcium depletion induced by thapsigargin; type: cell-based, human
Experimental: FIG. 11A-FIG. 11B. SERCaMP secretion is specifically triggered by ER calcium depletion. 293T cells stably expressing (A) SERCaMP or (B) control GLuc-STOP were treated with 0.1 μM TG or DMSO, for varying durations. Luciferase activity was measured in the medium (mean±SD, n=3) and normalized to the respective baseline. **P<0.01 by t-test.
RyR expression was next examined at the protein level. […] Since it has been shown that RyR2 isoform is present in the rabbit kidney cortex and its activity is modulated by phosphorylation of the channel, phosphorylation of RyR2 at Ser2808 was further examined. […] It has been shown that the carboxy-terminal sequence of an ER stress protein MANF (mesencephalic astrocyte-derived neurotrophic factor), ASARTDL (SEQ ID NO: 3), is sufficient to specifically confer ER calcium-depletion-dependent secretion. […] When human embryonic kidney (HEK) 293T cells stably expressing SERCaMP or control GLuc-STOP without the ASARTDL tag were treated with DMSO or 0.1 μM thapsigargin (TG), a SERCA inhibitor causing ER calcium depletion for 6 hours, SERCaMP secretion, as measured by luciferase activity in the cell culture medium, was increased in response to ER calcium depletion induced by TG (see e.g., FIG. 11A and FIG. 11B).

Tg-C321R mice = test: K201 treatment of podocyte ER stress-induced NS mouse model (urinary calpain, albuminuria, BUN); type: in vivo; settings: for albuminuria: K201 12.5-15 mg/kg i.p.
Experimental: Urinary calpain activity was measured by Calpain-Glo™ Protease Assay (Promega, Madison, Wis.). In brief, urines were incubated with calpain substrate (Succinyl-LLVY-aminoluciferin). Following cleavage of substrate by calpain, the substrate for luciferase (aminoluciferin) was released, allowing the luciferase reaction to occur and luminescence to be detected by Femtomaster FB12 Luminometer. The actual values of raw light units were normalized by urine Cr for each group.
(§1) BUN was measured by using a QuantiChrom™ urea assay kit (DIUR-500) (BioAssay Systems, Hayward, Calif.).
Mouse urines were collected by manual restraint or using a metabolic cage. The mouse urines were centrifuged at 1800 g for 10 minutes to remove debris before being frozen at −70° C. Urinary Cr concentration was quantified by a QuantiChrom™ creatinine assay kit (DICT-500) (BioAssay Systems) and albuminuria was measured by a QuantiChrom™ BCG albumin assay kit (DIAG-250) (BioAssay Systems).

procaspases 12 and 3 = test: Western blot of cleaved caspase 12 and caspase 3 in podocyte lysates; type: cell-based, mouse; settings: Tg-C321R podocytes
Experimental: (§2) Mouse primary podocytes and isolated glomeruli were lysed by RIPA buffer (Cell signaling) containing protease inhibitor cocktail (Sigma-Aldrich) and phosphatase inhibitor tablets (Roche, Indianapolis, Ind.). The protein concentrations of cell and glomerular lysates were determined by Bio-Rad Protein assay (Hercules, Calif.) using BSA as a standard. Denatured proteins were separated on SDS-polyacrylamide gels and then transferred to polyvinylidene difluoride membranes (Thermo Scientific). The membranes were blocked with 5% non-fat milk for 1 h and then incubated overnight with primary antibodies. Following incubation, membranes were washed with 0.1% Tris-buffered saline/Tween buffer and incubated with the appropriate HRP-conjugated secondary antibodies. The proteins were then detected using ECLplus kit (GE, Pittsburgh, Pa.) and visualized in an x-ray developer. To ensure equal protein loading, the same blot was stripped with stripping buffer (25 mM glycine and 1% SDS, pH 2.0) and then incubated with an HRP-conjugated anti-mouse β-actin antibody. Protein band intensities were quantified using Image J software (NIH, Bethesda, Md.).

primary podocytes = test: MTT cell viability assay; type: cell-based, mouse; settings: 1-5 μM of K201
Experimental: The higher apoptotic rates in all groups were most likely due to the effect of DMSO.
Isolated glomeruli from Tg-WT, Tg-C321R, and Lamb2^+/− mice at P27 were plated onto collagen type I-coated culture dishes, and cultured in 5% CO2 at 37° C. in DMEM (Gibco, NY):Ham's F-12 (Lonza, NY) (2:1) that contained 3T3-L1 supernatant, 5% heat-inactivated fetal bovine serum (Gibco), 1% Insulin-Transferrin-Selenium liquid media supplement (Gibco), and 100 U/ml penicillin-streptomycin (Gibco). After 3 days, cell colonies began to sprout around the glomeruli. […] Passage 0 podocytes from the indicated genotypes were used for RNA sequencing, and passages 1 and 2 podocytes for other in vitro studies.

[2] = test system: Tg-C321R primary podocytes; test: Cytosolic calcium levels measured by Fluo-4 AM; type: cell-based, mouse
Experimental: The cytosolic Ca^2+ levels were measured by Fluo-4 AM (Invitrogen). Primary podocytes of the indicated genotypes were plated on 6-well plates at 1×10^5 cells/well and stained with 2.5 μM Fluo-4 AM and 1 mM probenecid in the dark at 37° C. for 30 minutes. Then the cells were washed with PBS and kept in the dark for another 30 minutes to allow cleavage of intracellular AM esters. Fluorescence was measured by flow cytometer Calibur 3 (BD Biosciences, San Jose, Calif.) at the FACS core facility of Washington University School of Medicine. The results were analyzed by Cell Quest. For measuring intracellular Ca^2+ levels in primary podocytes treated with or without […] or MANF, cells were plated on 96-well plates at 0.8×10^4 cells per well and stained with Fluo-4 AM along with probenecid to enable high-throughput readout. Fluorescence was measured at excitation wavelength 485 nm and emission wavelength 528 nm by a fluorescent plate reader Synergy H1 (BioTek, Winooski, Vt.).

Lamb2+/- mice = test: K201 toxicity in control mice (kidney histology, BUN); type: in vivo, mouse; settings: K201 4 weeks vs vehicle-treated control littermates
Experimental: FIG. 13. […] HE staining of K201 or vehicle-injected kidneys at the end of treatment.
as §1
For light microscopy, kidneys were fixed in 4% paraformaldehyde, dehydrated through graded ethanols, embedded in paraffin, sectioned at 4 μm, and stained with Hematoxylin & Eosin (H&E) by standard methods.

[3] = test system: Tg-C321R primary podocytes; test: Annexin V-FITC/PI flow cytometry of early apoptosis; type: cell-based, mouse
Experimental: Apoptotic cell death was measured by FITC Annexin V/PI apoptosis detection kit (BD Biosciences) according to the manufacturer's protocol. […] The untreated- and treated-podocytes were harvested, washed with cold PBS twice, resuspended in binding buffer, and stained with Annexin V-FITC and PI in dark at room temperature for 15 minutes. After incubation, binding buffer was added, and the podocytes were analyzed by flow cytometer Calibur 3 (BD Biosciences). Unstained cells, cells stained with FITC-Annexin V or PI alone were used as controls to set up compensation and quadrants in flow cytometry. The results were analyzed by Cell Quest program.

RyR2 = target: T1, RyR2 (Mus musculus, UniProt E9Q401); test: Western blot of p-RyR2 (S2808) and RyR in podocyte lysates; type: cell-based; settings: MANF 5 μg/ml, 24 hours, Tg-C321R podocytes
T1 construct: endogenous in cells; host or cells: mouse primary podocytes from Tg-WT and Tg-C321R mice at P27

CHOP = test: Western blot of CHOP in podocyte lysates; type: cell-based, mouse; settings: MANF 5 μg/ml, 24 hours, Tg-C321R podocytes
Experimental: as §2

XBP1s and ATF4 = test: Western blot of XBP1s and ATF4 in podocyte lysates; type: cell-based, mouse; settings: MANF 5 μg/ml, 24 hours, Tg-C321R podocytes
Experimental: as §2

Umod C147W/+ mice = test: DOX-induced renal tubular MANF expression in ADTKD mouse model (BUN); type: in vivo; settings: DOX-induced tubular MANF from 6 to 24 weeks of age, TETMANF/+, P8TA vs Umod C147W/+
Experimental: as §1
Conditional renal tubular-specific MANF transgenic mice have been generated. TET-MANF mice were crossed with renal tubular-specific rtTA (Pax8-rtTA; P8TA) mice to generate bitransgenic TETMANF/+; P8TA mice, which were further bred to Umod C147W mice to generate Umod C147W/+; TETMANF/+; P8TA and Umod C147W/+; P8TA mice. Meanwhile, control Umod^+/+; TETMANF/+; P8TA and Umod^+/+; P8TA littermates were also generated. By administrating DOX, MANF expression was induced in renal tubules of Umod C147W/+; TETMANF/+; P8TA mice and control Umod^+/+; TETMANF/+; P8TA mice starting at 6 weeks of age until 24 weeks of age. Meanwhile, single transgenic mice including Umod C147W/+; P8TA and Umod^+/+; P8TA treated with DOX for the same duration were also included as controls.

[4] = recombinant MANF 24 h, Example 3

## C/C=C(/C)C(=O)O[C@H]1C(C)=C2[C@H]([C@@H]1OC(=O)CCCCCCC)[C@@](C)(OC(C)=O)C[C@H](OC(=O)CCC)[C@@]1(O)[C@H]2OC(=O)[C@@]1(C)O [thapsigargin]
[1]; 0.1 μM thapsigargin vs DMSO, 6 hours
  SERCaMP secretion (luciferase activity in the cell culture medium): increased

## COc1ccc2c(c1)CN(C(=O)CCN1CCC(Cc3ccccc3)CC1)CCS2 [K201, 4-[-3{1-(4-Benzyl)piperidinyl}propionyl]-7-methoxy-2,3,4,5-tetrahydro-1,4-benzothiazepine]
Tg-C321R mice; 3 weeks post-injection, vehicle 0.137±0.037
  albuminuria: 0.095±0.029 g/mg Cr
Tg-C321R mice; 4 weeks post-injection, vehicle 0.142±0.022
  albuminuria: 0.098±0.016 g/mg Cr
Tg-C321R mice; K201 12.5-15 mg/kg i.p. once daily vs 20% HBC, from 2 weeks to 4 weeks post-treatment
  Urinary calpain activity/Cr: dramatically decreased
Tg-C321R mice; end of 4 weeks of injection, Tg-C321R mice
  kidney function as indicated by blood urea nitrogen (BUN): improved kidney function
Procaspases 12 and 3; 5 μM K201, 24 hours
  activation of procaspases 12 and 3: abolished
Primary podocytes
  cell viability (MTT): non-toxic
[1]; 0.1 μM TG + 1 μM K201, 6 hours
  TG-induced ER calcium depletion (SERCaMP GLuc activity in the medium): abrogate TG-induced ER calcium depletion
[2]; 5 μM K201, 24 hours
  podocyte ER-to-cytosol calcium leak (cytosolic calcium, Fluo-4): markedly blocked
Lamb2+/- mice
  kidney histology (HE staining): no abnormality
  renal function as indicated by blood urea nitrogen (BUN): no abnormality
[3]; 5 μM K201, 24 hours, DMSO control 24.73±2.22%
  early apoptotic rate (Annexin V+/PI- cells): 15.23±2.84%

B1: MANF: Recombinant human MANF from R&D Systems; 18 kDa soluble ER stress inducible secreted protein (protein, UniProt P55145 25-182, looked up)
Mesencephalic …: LRPGDCEVCISYLGRFYQDLKDRDVTFSPATIENELIKFCREARGKENRLCYYIGATDDAATKIINEVSKPLAHHIPVEKICEKLKKKDSQICELKYDKQIDLSTVDLKKLRVKELKKILDDWGETCKGCAEKSDYIRKINELMPKYAPKAASARTDL
Procaspases 12 and 3; MANF 5 μg/ml, 24 hours
  active cleaved caspase 12: suppression
RyR2
  phosphorylation of ER RyR2 (S2808): reduced phosphorylation
CHOP
  CHOP induction: abrogated
XBP1s and ATF4
  XBP1s and ATF4 induction: inhibition
[2]; MANF recombinant protein 5 μg/ml, 24 hours
  cytosolic calcium levels (Fluo-4): significantly decreased
[3]; MANF 5 μg/ml, 24 hours, untreated 17.18±0.77%
  early apoptotic rate (Annexin V+/PI-): 10.09±0.51%
[3]; [4]
  early apoptosis (Annexin V+/PI- podocytes), printed as after treatment: 17.27%
  early apoptosis (Annexin V+/PI- podocytes), printed as before treatment: 10.73%
Umod C147W/+ mice
  kidney function (BUN levels): improved the kidney function
